{
  "source": "ChEMBL document CHEMBL5500378",
  "about": "“Discovery of 4-benzylpiperazinequinoline BChE inhibitor that suppresses neuroinflammation for the treatment of Alzheimer's disease” (Eur J Med Chem, 2024)",
  "key": {"[1]": {"assay": "Half life in Sprague-Dawley rat at 10 mg/kg, iv measured for 2880 mins by LC-MS/MS analysis", "format": "ADME, organism-based", "conditions": "in vivo, 48 h"}, "[2]": {"assay": "Ratio of Cmax in brain to plasma of ICR mouse at 10 mg/kg, IG measured at 10 to 240 mins by LC-MS/MS analysis", "format": "ADME, organism-based", "conditions": "po, time 10-240 min"}, "[3]": {"assay": "Toxicity in ICR mouse assessed as body weight change administered orally for 14 days consecutively", "conditions": "in vivo, po, 336 h, time 14 day"}, "[4]": {"assay": "AUC (0 to t) in brain of ICR mouse at 10 mg/kg, IG measured at 10 to 240 mins by LC-MS/MS analysis", "format": "ADME, organism-based", "conditions": "po, time 10-240 min"}, "BV-2 [5]": {"test_system": "BV-2", "assay": "Anti-inflammatory activity against mouse BV-2 cells assessed as decrease in LPS-induced IL-1beta level at 5 uM preincubated for 1 hr followed by LPS addition and incubated overnight by immunofluorescence based analysis", "format": "functional, cell-based"}, "BV-2 [6]": {"test_system": "BV-2", "assay": "Inhibition of ROS production in Amyloid beta(1 to 42)-induced neuronal damage in mouse BV-2 cells assessed as decrease in green fluorescence intensity at 5 uM by microscopic analysis", "format": "functional, cell-based"}, "[7]": {"assay": "Neurotoxicity against mouse BV-2 cells by MTT assay", "format": "toxicity, cell-based"}, "[8]": {"assay": "AUC (0 to t) in plasma of ICR mouse at 10 mg/kg, IG measured at 10 to 240 mins by LC-MS/MS analysis", "format": "ADME, organism-based", "conditions": "in vivo, po, time 10-240 min"}, "[9]": {"assay": "Tmax in Sprague-Dawley rat at 10 mg/kg, iv measured for 2880 mins by LC-MS/MS analysis", "format": "ADME, organism-based", "conditions": "in vivo"}, "BV-2 [10]": {"test_system": "BV-2", "assay": "Anti-inflammatory activity against mouse BV-2 cells assessed as decrease in LPS-induced IFN-gamma level at 2 to 6 uM preincubated for 1 hr followed by LPS addition and incubated overnight by ELISA", "format": "functional, cell-based", "conditions": "dose 2-6 µM"}, "BV-2 [11]": {"test_system": "BV-2", "assay": "Inhibition of ROS production in LPS-induced mouse BV-2 cells assessed as decrease in green fluorescence intensity at 2.5 to 10 uM pretreated for 1 hr followed by LPS addition and incubated overnight by DCFH-DA staining based analysis", "format": "functional, cell-based", "conditions": "dose 2.5-10 µM"}, "[12]": {"assay": "Half life in plasma of ICR mouse at 10 mg/kg, IG measured at 10 to 240 mins by LC-MS/MS analysis", "format": "ADME, organism-based", "conditions": "in vivo, po, time 10-240 min"}, "PC-12 [13]": {"test_system": "PC-12", "assay": "Neuroprotective activity against H2O2-induced neuronal damage in rat PC12 cells assessed as increase in cell viability pretreated for 1 hr followed by H2O2 addition measured after 24 hrs by MTT assay", "format": "functional, cell-based", "conditions": "dose <= 20.0 µM, time 25.0 hrs"}, "[14]": {"assay": "Cmax in brain of ICR mouse at 10 mg/kg, IG measured at 10 to 240 mins by LC-MS/MS analysis", "format": "ADME, organism-based", "conditions": "po, time 10-240 min"}, "Mus musculus [15]": {"test_system": "Mus musculus", "assay": "Improvement of cognition in ICR mouse model of Amyloid beta(1 to 42)-induced cognitive impairment at 10 mg/kg, IG for 12 days by Moris water maze test", "format": "functional, organism-based", "conditions": "time 12.0 day"}, "[16]": {"assay": "Oral bioavailability in Sprague-Dawley rat at 10 mg/kg, IG or 10 mg/kg, iv measured for 2880 mins by LC-MS/MS analysis", "format": "ADME, organism-based", "conditions": "in vivo"}, "Mus musculus [17]": {"test_system": "Mus musculus", "assay": "Improvement of learning ability in ICR mouse model of Amyloid beta(1 to 42)-induced cognitive impairment at 10 mg/kg, IG for 12 days by Moris water maze test", "format": "functional, organism-based", "conditions": "time 12.0 day"}, "BV-2 [18]": {"test_system": "BV-2", "assay": "Anti-inflammatory activity against mouse BV-2 cells assessed as decrease in LPS-induced IL-6 level at 2 to 6 uM preincubated for 1 hr followed by LPS addition and incubated overnight by ELISA", "format": "functional, cell-based", "conditions": "dose 2-6 µM"}, "Mus musculus [19]": {"test_system": "Mus musculus", "assay": "Anti-inflammatory activity in ICR mouse model assessed as reduction in brain TNF-alpha level at 10 mg/kg, IG pretreated for 10 days followed by LPS treatment for 4 days by ELISA", "format": "functional, organism-based", "conditions": "time 14.0 day"}, "[20]": {"assay": "Ratio of AUC in brain to plasma of ICR mouse at 10 mg/kg, IG measured at 10 to 240 mins by LC-MS/MS analysis", "format": "ADME, organism-based", "conditions": "po, time 10-240 min"}, "L02": {"test_system": "L02", "assay": "Cytotoxicity against human L02 cells by MTT assay", "format": "toxicity, cell-based"}, "Mus musculus [21]": {"test_system": "Mus musculus", "assay": "Neuroprotective activity in ICR mouse model of Amyloid beta(1 to 42)-induced cognitive impairment assessed as increase in AChE expression in brain at 10 mg/kg, IG for 12 days by ELISA", "format": "functional, organism-based", "conditions": "time 12.0 day"}, "[22]": {"molecular_target": "Acetylcholinesterase (Electrophorus electricus) (UniProt O42275)", "sequence (O42275 24-633 limits assumed)": "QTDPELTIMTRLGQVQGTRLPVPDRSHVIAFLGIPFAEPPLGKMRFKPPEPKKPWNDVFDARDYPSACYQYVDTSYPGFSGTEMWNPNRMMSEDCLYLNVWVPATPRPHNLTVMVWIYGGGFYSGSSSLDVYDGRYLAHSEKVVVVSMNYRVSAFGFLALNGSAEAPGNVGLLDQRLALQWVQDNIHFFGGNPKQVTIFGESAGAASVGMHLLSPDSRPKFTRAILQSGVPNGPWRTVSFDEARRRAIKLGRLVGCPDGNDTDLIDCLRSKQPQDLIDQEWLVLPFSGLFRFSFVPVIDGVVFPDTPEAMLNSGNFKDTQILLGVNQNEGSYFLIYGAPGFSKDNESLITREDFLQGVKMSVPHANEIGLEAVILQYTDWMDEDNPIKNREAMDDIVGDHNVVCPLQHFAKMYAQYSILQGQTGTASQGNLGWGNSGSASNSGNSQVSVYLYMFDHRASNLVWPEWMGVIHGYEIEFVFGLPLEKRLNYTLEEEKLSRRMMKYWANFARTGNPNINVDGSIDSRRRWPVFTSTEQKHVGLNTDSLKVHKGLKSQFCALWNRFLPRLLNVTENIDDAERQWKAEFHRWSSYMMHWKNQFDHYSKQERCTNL", "assay": "Inhibition of electric eel AChE using ATC as substrate at 10 uM incubated for 2 mins by Ellman's method relative to control"}, "[23]": {"assay": "Metabolic stability in human liver microsomes assessed as half life at 2 uM incubated for 60 mins by LC-MS/MS analysis", "format": "ADME, Microsome"}, "[24]": {"assay": "Toxicity in ICR mouse model of Amyloid beta(1 to 42)-induced cognitive impairment assessed as body weight change at 10 mg/kg, IG for 12 days", "format": "organism-based", "conditions": "in vivo, po, 288 h, time 12 day"}, "[25]": {"assay": "Drug concentration in brain of ICR mouse at 10 mg/kg, IG measured at about 22 mins by LC-MS/MS analysis", "format": "ADME, organism-based", "conditions": "po, read-out: Ct"}, "[26]": {"assay": "Toxicity in ICR mouse model of Amyloid beta(1 to 42)-induced cognitive impairment assessed as change in body appearance at 10 mg/kg, IG for 12 days", "format": "organism-based", "conditions": "in vivo, po, 288 h, time 12 day"}, "Mus musculus [27]": {"test_system": "Mus musculus", "assay": "Anti-inflammatory activity in ICR mouse model assessed as reduction in serum TNF-alpha level at 10 mg/kg, IG pretreated for 10 days followed by LPS treatment for 4 days by ELISA", "format": "functional, organism-based", "conditions": "time 14.0 day"}, "[28]": {"assay": "MRT (infinity) in Sprague-Dawley rat at 10 mg/kg, IG measured for 2880 mins by LC-MS/MS analysis", "format": "ADME, organism-based", "conditions": "in vivo, po"}, "PC-12 [29]": {"test_system": "PC-12", "assay": "Neuroprotective activity against H2O2-induced neuronal damage in rat PC12 cells assessed as increase in cell viability at 20 uM pretreated for 1 hr followed by H2O2 addition measured after 24 hrs by MTT assay relative to control", "format": "functional", "conditions": "time 25 hrs"}, "[30]": {"test_system": "Antioxidant response element", "assay": "Induction of ARE in human HepG2-ARE-C8 cells incubated for 24 hrs by luciferase based assay", "format": "cell-based", "conditions": "HepG2-ARE-C8, 24 h"}, "[31]": {"assay": "Half life in Sprague-Dawley rat at 10 mg/kg, IG measured for 2880 mins by LC-MS/MS analysis", "format": "ADME, organism-based", "conditions": "in vivo, po"}, "BV-2 [32]": {"test_system": "BV-2", "assay": "Anti-inflammatory activity against mouse BV-2 cells assessed as decrease in LPS-induced TNF-alpha level at 5 uM preincubated for 1 hr followed by LPS addition and incubated overnight by immunofluorescence based analysis", "format": "functional, cell-based"}, "[33]": {"assay": "AUC (0 to t) in Sprague-Dawley rat at 10 mg/kg, iv measured for 2880 mins by LC-MS/MS analysis", "format": "ADME, organism-based", "conditions": "in vivo"}, "[34]": {"assay": "AUC (0 to infinity) in Sprague-Dawley rat at 10 mg/kg, iv measured for 2880 mins by LC-MS/MS analysis", "format": "ADME, organism-based", "conditions": "in vivo"}, "Mus musculus [35]": {"test_system": "Mus musculus", "assay": "Anti-inflammatory activity in ICR mouse model assessed as shorter platform latency at 10 mg/kg, IG pretreated for 10 days followed by LPS treatment for 4 days by Moris water maze test", "format": "functional, organism-based", "conditions": "time 14.0 day"}, "[36]": {"assay": "Cmax in Sprague-Dawley rat at 10 mg/kg, IG measured for 2880 mins by LC-MS/MS analysis", "format": "ADME, organism-based", "conditions": "in vivo, po"}},
  "note": "Active and inactive are the calls of the source. The rule behind the calls is not given here.",
  "data": [
    {"smiles": "CCCc1ccc(C(=O)Nc2cnc3ccccc3c2N2CCN(Cc3ccccc3)CC2)cc1", "values": [
      {"measurement": "t1/2", "setting": "[1]", "result": 5.047, "unit": "h"},
      {"measurement": "Kp", "setting": "[2]", "result": 2.33},
      {"measurement": "Activity", "setting": "[3]", "result": "Non-Toxic"},
      {"measurement": "AUC(0-t)", "setting": "[4]", "result": 38300, "unit": "ng·h/mL"},
      {"measurement": "Activity", "setting": "BV-2 [5]", "result": "Active"},
      {"measurement": "inhibition", "setting": "BV-2 [6]", "result": "Active"},
      {"measurement": "Activity", "setting": "[7]", "result": "Not Active"},
      {"measurement": "AUCt", "setting": "[8]", "result": 20051.76, "unit": "ng·h/mL"},
      {"measurement": "Tmax", "setting": "[9]", "result": 1, "unit": "min"},
      {"measurement": "Activity", "setting": "BV-2 [10]", "result": "Active"},
      {"measurement": "inhibition", "setting": "BV-2 [11]", "result": "Active"},
      {"measurement": "t1/2", "setting": "[12]", "result": 1.09, "unit": "h"},
      {"measurement": "Activity", "setting": "PC-12 [13]", "result": "Dose-Dependent Effect"},
      {"measurement": "Cmax", "setting": "[14]", "result": 554, "unit": "ng/mL"},
      {"measurement": "Activity", "setting": "Mus musculus [15]", "result": "Active"},
      {"measurement": "bioavailability", "setting": "[16]", "result": 92.3, "unit": "%"},
      {"measurement": "Activity", "setting": "Mus musculus [17]", "result": "Active"},
      {"measurement": "Activity", "setting": "BV-2 [18]", "result": "Active"},
      {"measurement": "Activity", "setting": "Mus musculus [19]", "result": "Active"},
      {"measurement": "Kp", "setting": "[20]", "result": 1.96},
      {"measurement": "Activity", "setting": "L02", "result": "Non-Toxic"},
      {"measurement": "Activity", "setting": "Mus musculus [21]", "result": "Active"},
      {"measurement": "inhibition", "setting": "[22]", "result": "< 50", "unit": "%"},
      {"measurement": "half-life at 2 µM", "setting": "[23]", "result": 0.762, "unit": "h"},
      {"measurement": "Activity", "setting": "[24]", "result": "Non-Toxic"},
      {"measurement": "concentration at 22 min", "setting": "[25]", "result": 554, "unit": "ng/mL"},
      {"measurement": "Activity", "setting": "[26]", "result": "Non-Toxic"},
      {"measurement": "Activity", "setting": "Mus musculus [27]", "result": "Active"},
      {"measurement": "MRT inf", "setting": "[28]", "result": 17.8, "unit": "h"},
      {"measurement": "Activity", "setting": "PC-12 [29]", "result": ">80", "unit": "%"},
      {"measurement": "EC50", "setting": "[30]", "result": 23.5, "unit": "µM"},
      {"measurement": "half-life", "setting": "[31]", "result": 2.81, "unit": "h"},
      {"measurement": "Activity", "setting": "BV-2 [32]", "result": "Active"},
      {"measurement": "AUC(0-t) at 48 h", "setting": "[33]", "result": 6070, "unit": "ng·h/mL"},
      {"measurement": "AUC(0-inf)", "setting": "[34]", "result": 6070, "unit": "ng·h/mL"},
      {"measurement": "Activity", "setting": "Mus musculus [35]", "result": "Active"},
      {"measurement": "Cmax", "setting": "[36]", "result": 1380, "unit": "ng/mL"}
    ]}
  ]
}
